Values joined by “and” are separate entries in the source; they are usually repeats but may differ in a detail not shown here. Identical values can stand only once.
Legend:
[1] = biological target: T1, hERG potassium channel (Homo sapiens, UniProt Q12809); assay: hERG screening assay (PatchXpress patch clamp); assay type: cell-based; conditions: hERG expressed in CHO cells, peak current at -50 mV; for hERG Patch Clamp hERG % blk 1 μm: 1 μM test compound; for hERG Patch Clamp hERG % blk 10 μm: 10 μM test compound
T1 construct: expressed in transfected cells
Procedure: Compounds were screened to test their activity in blocking the hERG potassium channel. The hERG channel was heterologously expressed in a CHO (Chinese Hamster Ovary) cell line. Cells were maintained with standard tissue culture procedures and stable channel expression was maintained with 500 μg/ml G418 in the culture medium. Cells were harvested for testing on the PatchXpress automated patch clamp with Accumax (Innovative Cell Technologies, San Diego, Calif.) to isolate single cells.
The following solutions were used for electrophysiological recordings. The external solution contained: 2 mM CaCl2; 2 mM MgCl2; 4 mM KCl; 150 mM NaCl; 10 mM Glucose; 10 mM HEPES (pH 7.4 with 1M NaOH, osmolarity). The internal solution contained: 140 mM KCl, 10 mM MgCl2, 6 mM EGTA, 5 mM HEPES, 5 mM ATP (pH adjusted to 7.25 with KOH).
hERG channels are activated when the voltage is stepped to +20 mV from the −80 mV holding potential. During a 5 second step at +20 mV, the channels activated and then largely inactivated, so the currents were relatively small. Upon returning to −50 mV from +20 mV, hERG currents transiently became much larger as inactivation was rapidly removed and then the channel closed. The first step to −50 mV for 300 ms was used as a baseline for measuring the peak amplitude during the step to −50 mV after channel activation. The peak current at −50 mV was measured both under control conditions and after addition of compound.
All compounds were prepared as 10 mM DMSO stocks in glass vials. Stock solutions were mixed by vigorous vortexing and sonication for about 2 minutes at room temperature. For testing, compounds were diluted in glass vials using an intermediate dilution step in pure DMSO and then further diluted to working concentrations in external solution. Dilutions were prepared no longer than 20 minutes before use.
After achieving the whole-cell configuration, cells were monitored for 90 seconds to assess stability and washed with external solution for 66 seconds. The voltage protocol described above was then applied to the cells every 12 seconds and throughout the whole procedure. Only cells with stable recording parameters and meeting specified health criteria were allowed to enter the compound addition procedure.
External solution containing 0.1% DMSO (vehicle) was applied to the cells first to establish the control peak current amplitude. After allowing the current to stabilize for 3 to 5 minutes, 1 μM and then 10 μM test compounds were applied. Each compound concentration was added 4 times and cells were kept in test solution until the effect of the compound reached steady state or for a maximum of 12 minutes. After addition of test compound, a positive control (1 μM Cisapride) was added—it must block >95% of the current for the experiment to be considered valid. Washout in the external solution compartment was performed until the recovery of the current reached steady state. Data were analyzed using DataXpress, Clampfit (Molecular Devices, Inc., Sunnyvale) and Origin 7 (Originlab Corp.)

[2] = biological target: wild-type human cardiac sodium channel, hNav1.5 (late sodium current) (Homo sapiens, UniProt Q14524); assay: Late INa screening assay (PatchXpress whole cell patch clamp); assay type: cell-based; conditions: HEK293, 10 μM test compound; HEK293 cells expressing hNav1.5; late INa generated with 10 μM Tefluthrin (some experiments 50 nM ATX II); read-out: Late INa % blk (10 μM test cmpd)
wild-type human cardiac sodium channel, hNav1.5 (late sodium current), sequence (Q14524 whole entry): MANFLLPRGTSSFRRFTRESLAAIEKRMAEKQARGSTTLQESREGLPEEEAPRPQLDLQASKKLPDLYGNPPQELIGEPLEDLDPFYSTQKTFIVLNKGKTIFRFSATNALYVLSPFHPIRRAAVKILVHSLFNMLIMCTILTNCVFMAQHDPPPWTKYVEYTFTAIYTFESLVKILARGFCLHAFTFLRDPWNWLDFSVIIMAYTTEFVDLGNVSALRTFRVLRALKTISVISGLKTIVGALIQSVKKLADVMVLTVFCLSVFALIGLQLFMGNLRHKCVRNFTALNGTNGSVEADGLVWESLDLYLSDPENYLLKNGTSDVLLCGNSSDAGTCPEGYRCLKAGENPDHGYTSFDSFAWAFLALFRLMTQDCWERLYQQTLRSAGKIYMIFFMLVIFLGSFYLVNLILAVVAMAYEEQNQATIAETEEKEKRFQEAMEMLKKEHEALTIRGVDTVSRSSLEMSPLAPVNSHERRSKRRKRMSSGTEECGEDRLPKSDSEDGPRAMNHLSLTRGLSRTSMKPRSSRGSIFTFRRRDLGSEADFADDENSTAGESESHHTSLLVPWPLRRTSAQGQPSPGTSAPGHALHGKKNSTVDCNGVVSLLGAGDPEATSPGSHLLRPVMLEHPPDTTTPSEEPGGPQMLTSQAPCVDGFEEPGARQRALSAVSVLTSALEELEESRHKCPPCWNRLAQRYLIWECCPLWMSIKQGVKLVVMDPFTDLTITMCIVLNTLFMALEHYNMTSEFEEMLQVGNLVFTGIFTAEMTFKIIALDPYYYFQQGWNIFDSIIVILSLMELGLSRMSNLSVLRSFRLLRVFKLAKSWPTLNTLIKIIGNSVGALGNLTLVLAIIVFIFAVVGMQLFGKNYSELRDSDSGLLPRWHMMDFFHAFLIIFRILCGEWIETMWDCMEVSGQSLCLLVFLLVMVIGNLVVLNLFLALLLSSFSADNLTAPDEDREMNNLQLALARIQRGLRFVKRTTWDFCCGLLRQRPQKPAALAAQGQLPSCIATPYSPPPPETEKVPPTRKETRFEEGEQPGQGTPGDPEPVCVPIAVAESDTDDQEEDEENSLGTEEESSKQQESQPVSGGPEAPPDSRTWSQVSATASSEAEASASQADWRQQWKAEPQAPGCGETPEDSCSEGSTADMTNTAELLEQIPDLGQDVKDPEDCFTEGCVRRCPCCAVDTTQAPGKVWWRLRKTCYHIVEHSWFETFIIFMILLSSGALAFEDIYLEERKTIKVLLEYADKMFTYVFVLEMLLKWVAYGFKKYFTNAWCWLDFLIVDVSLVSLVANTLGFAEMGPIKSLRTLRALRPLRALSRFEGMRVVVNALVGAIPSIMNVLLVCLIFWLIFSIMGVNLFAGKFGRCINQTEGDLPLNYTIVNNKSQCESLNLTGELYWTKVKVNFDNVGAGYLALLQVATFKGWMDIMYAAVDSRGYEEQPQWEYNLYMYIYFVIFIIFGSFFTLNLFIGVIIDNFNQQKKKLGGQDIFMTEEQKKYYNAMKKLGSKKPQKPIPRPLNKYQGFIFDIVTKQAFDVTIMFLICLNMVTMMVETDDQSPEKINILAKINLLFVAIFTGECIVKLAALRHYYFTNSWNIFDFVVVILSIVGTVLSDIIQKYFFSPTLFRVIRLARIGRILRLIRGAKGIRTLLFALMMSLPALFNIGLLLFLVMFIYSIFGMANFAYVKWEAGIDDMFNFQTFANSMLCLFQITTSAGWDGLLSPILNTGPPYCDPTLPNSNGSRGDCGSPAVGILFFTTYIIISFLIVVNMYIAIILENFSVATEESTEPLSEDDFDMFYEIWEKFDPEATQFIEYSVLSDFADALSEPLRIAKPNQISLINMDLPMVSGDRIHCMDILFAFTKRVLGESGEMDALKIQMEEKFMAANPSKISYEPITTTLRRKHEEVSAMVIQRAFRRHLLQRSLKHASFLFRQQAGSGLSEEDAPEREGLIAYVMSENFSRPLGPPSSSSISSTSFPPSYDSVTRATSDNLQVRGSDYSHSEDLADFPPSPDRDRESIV

T1 sequence (Q12809 whole entry): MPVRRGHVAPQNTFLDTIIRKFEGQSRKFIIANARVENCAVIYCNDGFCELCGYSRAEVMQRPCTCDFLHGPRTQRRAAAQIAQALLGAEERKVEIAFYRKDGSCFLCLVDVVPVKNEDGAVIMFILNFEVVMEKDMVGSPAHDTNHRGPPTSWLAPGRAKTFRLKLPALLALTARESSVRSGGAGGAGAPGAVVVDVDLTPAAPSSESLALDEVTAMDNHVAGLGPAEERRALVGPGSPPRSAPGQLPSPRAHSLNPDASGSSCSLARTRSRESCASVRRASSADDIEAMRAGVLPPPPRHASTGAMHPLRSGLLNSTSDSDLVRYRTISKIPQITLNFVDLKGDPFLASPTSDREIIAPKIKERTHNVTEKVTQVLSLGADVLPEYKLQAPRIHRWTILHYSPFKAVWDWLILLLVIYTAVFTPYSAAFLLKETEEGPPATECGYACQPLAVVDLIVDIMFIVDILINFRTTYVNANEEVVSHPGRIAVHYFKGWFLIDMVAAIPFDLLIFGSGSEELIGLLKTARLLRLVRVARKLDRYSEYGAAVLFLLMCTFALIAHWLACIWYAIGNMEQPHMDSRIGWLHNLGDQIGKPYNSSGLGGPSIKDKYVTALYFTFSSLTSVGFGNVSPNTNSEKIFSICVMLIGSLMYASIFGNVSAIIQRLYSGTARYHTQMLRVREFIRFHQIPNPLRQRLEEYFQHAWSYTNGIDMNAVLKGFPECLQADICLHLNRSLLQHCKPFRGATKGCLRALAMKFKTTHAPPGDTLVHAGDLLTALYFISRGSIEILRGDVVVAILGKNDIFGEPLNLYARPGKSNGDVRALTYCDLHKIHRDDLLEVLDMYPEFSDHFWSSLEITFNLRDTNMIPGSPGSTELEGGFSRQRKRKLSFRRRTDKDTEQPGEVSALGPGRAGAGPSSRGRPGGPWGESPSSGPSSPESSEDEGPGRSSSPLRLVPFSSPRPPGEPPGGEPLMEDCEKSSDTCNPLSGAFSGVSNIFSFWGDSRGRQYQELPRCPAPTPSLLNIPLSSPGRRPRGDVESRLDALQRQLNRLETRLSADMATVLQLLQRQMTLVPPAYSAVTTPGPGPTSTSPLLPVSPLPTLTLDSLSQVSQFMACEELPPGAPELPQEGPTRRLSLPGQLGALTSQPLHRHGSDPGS

In the case of O=C(O)CN1C(=O)CCc2cc(-c3ccc(Oc4ccccc4)cc3)ccc21 [Compound 70, [2-oxo-6-(4-phenoxyphenyl)-3,4-dihydroquinolin-1(2H)-yl]acetic acid], the “hERG Patch Clamp hERG % blk 1 μm” value [1] is reported as 10%, the “hERG Patch Clamp hERG % blk 10 μm” value [1] is reported as 10% and the inhibition at 10 µM [2] is reported as 17%.
CC(O)CN1C(=O)CCc2cc(-c3ccc(OC(F)(F)F)cc3)ccc21 (stereo not drawn) [Compound 89, 1-(2-hydroxypropyl)-6-[4-(trifluoromethoxy)phenyl]-3,4-dihydroquinolin-2(1H)-one] was tested, and the “hERG Patch Clamp hERG % blk 1 μm” value [1] was 24% and 16%, the “hERG Patch Clamp hERG % blk 10 μm” value [1] was 67% and 72% and the inhibition at 10 µM [2] was 42%.

Source: patent US8664379B2, “Fused heterocyclic compounds as ion channel modulators” (Gilead Sciences, Inc., priority 2008, dated 2014)
